Measurements from patent US5770565A, “Peptides for reducing or inhibiting bone resorption” (priority 1994, dated 1998).
Where a SMILES comes first, the peptide text is derived from it. Bridges are numbered along the chain shown (N, C = ends). [ ]: non-standard residue; d: D form. Tic = O=C(O)[C@@H]1Cc2ccccc2CN1; Pen = CC(C)(S)[C@H](N)C(=O)O; Mpa = O=C(O)CCS

What was measured:
osteoclasts = conditions: cited from earlier work
[1] = tested on: αV β3 integrin, osteoclasts; assay: series of assays of Example II for potency and selectivity (summary, FIG. 2)
From the text: Peptides of the RGDNTic (SEQ ID NO: 56) pharmacophore group are characterized, in general, as having increased potency, whereas the peptides of the pharmacophore RGDDV (SEQ ID NO: 1) group generally have higher receptor selectivity. […] As used herein, the term "potency" or "potent" means that a peptide of the invention is active at a relatively low concentration in the assays described in Examples II and III. A potent peptide of the invention can be identified, for example, using the assays described in Examples II and III.
Selectivity can be due, for example, to the ability of a peptide of the invention to bind to αV β3 with greater affinity than it binds to other integrins. Thus, in addition to having selectivity, for example, for osteoclast binding to a matrix, a peptide of the invention also can display receptor selectivity and, therefore, more specifically alter receptor-mediated binding to a matrix. As used herein, the term "receptor selectivity" means that a peptide of the invention can bind to one receptor with greater affinity than it can bind to another receptor.

Swiss-Webster mice = assay: PTH-induced hypercalcemia assay; type: in vivo; conditions: peptide infused 4 hr at various doses, 0.2 mg PTH/kg i.v., FIG. 9
From the text: Parathyroid hormone (PTH) activates osteoclasts, which are involved in bone resorption. Associated with the increased osteoclast activity is an increase in serum calcium. The PTH-induced hypercalcemia assay measures the level of serum calcium, which is an indication of bone resorption in a subject (Fischer et al., Endocrinology 132:1411-1413 (1993), which is incorporated herein by reference).
Swiss-Webster mice, which had been parathyroidectomized two weeks prior to beginning the assay, were obtained from Taconic Lab Animals and Services (Germantown N.Y.). Femoral vein catheters (PE-50 fused with PE10 polyethylene tubing; Becton Dickinson; Parsippany, N.J.) were installed in the mice, flushed and locked with heparinized saline (1:10), sutured to adjacent muscle and internalized within the inguinal space of the incision before closing the incision with wound clips. […]
The experiment was initiated by feeding the mice a calcium-deficient diet overnight, then injecting the mice the following morning with a bolus of 0.2 mg PTH/kg (hPTH 1-34; Bachem; Torrance Calif.), intravenously. […] Various doses of a peptide or vehicle were infused into an animal for 4 hr, then ionized serum calcium again was measured. […] Serum calcium measurements were expressed as the difference between the value 30 min before the PTH pulse and 4 hr after peptide infusion was started. […]

αV β3 receptor = biological target: T1, αV β3 receptor (Homo sapiens, UniProt P05106+P06756); assay: αV β3 ELISA (competitive receptor binding); conditions: receptor ELISAs compared
T1 construct: The αV β3 receptor was purified from octylglucopyranoside-extracted human placenta; from tissue; host or cells: human placenta
Description: (§1) Peptide binding to purified human αV β5 and αV β3, which are VnR's, and to α5 β1, which is a FnR, was determined using competitive ELISA assays as described below.
Peptide binding to purified αV β3 receptor was determined by using a competitive ELISA, in which αV β3 receptor was immobilized and the binding of solubilized VN, in the presence of various concentrations of peptide analogue, was detected using a monoclonal mouse IgG anti-VN antibody and a labelled anti-mouse IgG conjugate. A monoclonal anti-VN antibody can be obtained using routine methods (see, for example, Harlow and Lane, Antibodies: A laboratory manual (Cold Spring Harbor Laboratory Press 1988), which is incorporated herein by reference).
96 well microtiter plates were coated overnight at RT with 100 μl/well of αV β3 receptor (0.5 μg/ml in 1×TBS, 4 mM octylglucoside, 1 mM CaCl2). The wells were blocked with 200 μl/well of 1% BSA in 1×TBS, 1 mM CaCl2 for at least 30 min. The plates were washed 2× with 1×TBS, 1 mM CaCl2. 50 μl peptide in 1×TBS, 1 mM CaCl2, 0.05% "TWEEN 20" polyoxyethylenesorbitan monolaurate was added in 10-fold serial dilutions. 50 μl of Vn in the same buffer then was added to each well.
The plates were incubated for 3 hr at RT, then washed 3× with 1×TBS, 0.05% "TWEEN 20" polyoxyethylenesorbitan monolaurate. […] The plates were read at 490 nm and the data analyzed by four parameter fit. […]

[2] = half-life of peptide in serum; conditions: in vivo
From the text: Increased stability of a disulfide bonded peptide of the invention also can be conferred by incorporating a hydrophobic amino acid residue such as phenylalanine at position X1 or X8 or both X1 and X8 in an RGDNTic (SEQ ID NO: 56) or RGDDV (SEQ ID NO: 1) pharmacophore as disclosed herein. The presence of such a residue can stabilize the disulfide bond against enzymatic degradation (see Bauer et al., Life Sciences 31:1133-1140 (1982)). […] In addition, the half-life of a peptide in a subject can be determined, for example, by high performance liquid chromatography (HPLC) of serum samples collected from the subject at various times following administration of the peptide. One skilled in the art would know how to select appropriate elution buffers for HPLC based on the physico-chemical properties of a particular peptide.

α5 β1 (FnR) = biological target: T2, α5 β1 (FnR) (Homo sapiens, UniProt P05556+P08648); assay: α5 β1 ELISA (competitive receptor binding); conditions: receptor ELISAs compared
T2 construct: Fibronectin receptor (FnR) was purified from 100 mM octyl-glucopyranoside-extracted human placenta; from tissue; host or cells: human placenta
Description: as §1
Peptide binding to purified human α5 β1 (FnR) also was determined using a competitive ELISA. In these assays, Fn was immobilized to the wells and the binding of solubilized FnR in the presence of various concentrations of a peptide analogue was determined using a mouse monoclonal antibody to human β1 (clone P4C10; Gibco) and specific binding was visualized using a second antibody.
Microtiter wells were coated at RT by adding 100 μl of 2 μg/ml human Fn in TBS and incubating the plates overnight at 4° C. Following incubation, the plates were washed 3× with TBS/"TWEEN-20". RGD peptides were diluted in TBS containing 20 mM OG and 2 mM MnCl2 and 50 μl was added to wells at 10-fold serial dilutions. FnR was diluted in the same buffer and 50 μl was added to each well.
The plates were incubated for 3 hr at RT and washed with 300 μl TBS/"TWEEN-20". Bound receptor was incubated with 100 μl of the monoclonal anti-β1 antibody for 2 hr, then washed 3× with TBS/"TWEEN-20". […] The amount of bound second antibody was determined as described above.
The IC50 values for various RGD peptides were calculated by determining the concentration of a peptide that inhibited binding of Vn to αV β5 or αV β3 or of Fn to α5 β1 by 50%. […]

Question: With Echistatin as the compound, how does the binding to osteoclasts (osteoclasts) read?
Answer: Its binding to osteoclasts is “nonselective”.

Question: For `C[C@@H]1NC(=O)[C@H](C)NC(=O)[C@@H](NC(=O)CN)C(C)(C)SSC[C@@H](C(N)=O)NC(=O)[C@H]([C@@H](C)O)NC(=O)[C@H](CC(=O)O)NC(=O)[C@H](CC(=O)O)NC(=O)CNC(=O)[C@H](CCCNC(=N)N)NC1=O` [compound 186] (H-G[Pen]AARGDDTC-NH2; disulfide 2-10), which “receptor selectivity (summary classification)” value [1] is on record?
Answer: The value was “particularly receptor selective”.

Question: For `CC(=O)N[C@H]1CSSC[C@@H](C(N)=O)NC(=O)[C@@H]2Cc3ccccc3CN2C(=O)[C@H](CO)NC(=O)[C@H](CC(=O)O)NC(=O)CNC(=O)[C@H](CCCNC(=N)N)NC1=O` [compound 812, Ac-CRGDS(Tic)Cs-NH2] (Ac-CRGDS[Tic]C-NH2; disulfide 1-7), which “potency (summary classification)” value [1] is on record?
Answer: The value was “particularly potent”.

Question: And the “activity of peptides with minimally essential elements” value ([1]; FIG. 2)?
Answer: The value was “demonstrate activity”.

Question: For `CC(C)[C@@H]1NC(=O)[C@H](CC(=O)O)NC(=O)[C@H](CC(=O)O)NC(=O)CNC(=O)[C@H](CCCNC(=N)N)NC(=O)CCSSC[C@@H](C(N)=O)NC1=O` [compound 191] ([Mpa]RGDDVC-NH2; disulfide 1-7), which “effect on PTH-induced rise in serum ionized calcium” value (Swiss-Webster mice) is on record?
Answer: Its value is “decreased the PTH-induced rise in serum ionized calcium in a dose responsive manner”.

Question: Which results are given for `CC(C)[C@@H]1NC(=O)[C@H](CC(=O)O)NC(=O)[C@H](CC(=O)O)NC(=O)CNC(=O)[C@H](CCCNC(=N)N)NC(=O)[C@H](C)NC(=O)[C@H](CCCNC(=N)N)NC(=O)[C@@H](NC(=O)CN)C(C)(C)SSC[C@@H](C(=O)N[C@@H](C)C(=O)O)NC1=O` [compound 138] (H-G[Pen]RARGDDVCA-OH; disulfide 2-10)?
Answer: potency and selectivity together (summary classification) [1]: both potent and selective; receptor selectivity (summary classification) [1]: particularly receptor selective

Question: For `CC(=O)N[C@@H]1C(=O)N[C@@H](Cc2ccccc2)C(=O)N[C@@H](C)C(=O)N[C@@H](CCCNC(=N)N)C(=O)NCC(=O)N[C@@H](CC(=O)O)C(=O)N[C@@H](CC(N)=O)C(=O)N2CCC[C@H]2C(=O)N[C@H](C(N)=O)CSSC1(C)C` [peptide 214] (Ac-[Pen]FARGDNPC-NH2; disulfide 1-9), which “relative affinity for αV β3, α5 β1 and αV β5” value (αV β3 receptor) is on record?
Answer: The value was “higher affinity for αV β3 and α5 β1 than for αV β5”.

Question: What about the “potency (summary classification)” value [1] of the same compound?
Answer: The value was “particularly potent”.

Question: With `CC(=O)N[C@@H](Cc1ccccc1)C(=O)N[C@H]1CSSC[C@@H](C(N)=O)NC(=O)[C@H](Cc2ccccc2)NC(=O)[C@H]([C@@H](C)O)NC(=O)[C@H](CC(=O)O)NC(=O)CNC(=O)[C@H](CCCNC(=N)N)NC1=O` [peptide 220] (Ac-FCRGDTFC-NH2; disulfide 2-8) as the compound, how does the half-life in serum [2] read?
Answer: The half-life in serum was “relatively long”.

Question: Which “receptor selectivity (summary classification)” value [1] does the source give for `CC(=O)N[C@H]1CSSC(C)(C)[C@@H](C(N)=O)NC(=O)[C@@H]2CCCN2C(=O)[C@H](CC(N)=O)NC(=O)[C@H](CC(=O)O)NC(=O)CNC(=O)[C@H](CCCNC(=N)N)NC1=O` [compound 228] (Ac-CRGDNP[Pen]-NH2; disulfide 1-7) here?
Answer: The value was “particularly receptor selective”.

Question: For `C[C@H](NC(=O)[C@@H]1CSSC(C)(C)[C@H](NC(=O)CN)C(=O)N[C@@H](C)C(=O)N[C@@H](C)C(=O)N[C@@H](CCCNC(=N)N)C(=O)NCC(=O)N[C@@H](CC(=O)O)C(=O)N[C@@H](CC(N)=O)C(=O)N2CCC[C@H]2C(=O)N1)C(=O)O` [compound 310] (H-G[Pen]AARGDNPCA-OH; disulfide 2-10), which “selectivity toward α5 β1 versus αV β5” value (α5 β1 (FnR)) is on record?
Answer: Its value is “more selective toward α5 β1 than toward αV β5”.
